Measured values taken from US4374980A, “3'-Deamino-3'-morpholino carminomycin” (Zaidan Hojin Biseibutsu Kagaku Kenkyu Kai, priority 1981, dated 1983).
≈ marks a conversion by molar mass, not a printed value.

Assays:
leukemic cells L1210 [1] = assay: Inhibition of DNA synthesis (14C-thymidine incorporation) in cultivated leukemic cells L1210 of mice; type: cell-based; conditions: Mus musculus, L1210, 1 h, 60 minutes, 37° C., RPMI 1640, 10% calf serum
Description: (§1) (A) Activity of inhibiting growth, DNA synthesis and RNA synthesis of cultivated leukemic cells L1210 of mice.
(§2) Separately, the above cultivated cells L1210 were suspended in a concentration of 1×10^5 /ml in an RPMI 1640 medium containing 10% of calf serum, and cultivated for 1 to 2 hours in an incubator containing carbon dioxide gas at 37° C. Then, 3'-deamino-3'-morpholino-carminomycin was added in various concentrations,and 15 minutes later, ^14 C-uridine (0.05 μCi/ml) and ^14 C-thymidine (0.05 μCi/ml) were added. Thus, the cells were cultivated at 37° C. for 60 minutes. A 10% aqueous solution of trichloroacetic acid was added to the reaction liquor to stop the reaction and simultaneously precipitate an acid-insoluble matter. The acid-insoluble matter was washed three times with a 10-5% aqueous solution of trichloroacetic acid, and then dissolved in formic acid. The radioactivity of the acid-insoluble matter was measured. From the ratio of incorporated radiation to that of a control group, the concentrations which inhibited radiation by 50% were measured.

leukemic cells L1210 [2] = assay: Inhibition of RNA synthesis (14C-uridine incorporation) in cultivated leukemic cells L1210 of mice; type: cell-based; conditions: Mus musculus, L1210, 1 h, 60 minutes, 37° C., RPMI 1640, 10% calf serum
Description: as §1, §2

[3] = Acute toxicity by oral administration on CDF1 mouse; conditions: in vivo
Excerpt: (C) Acute toxicity by oral administration on CDF1 mouse.

leukemic cells L1210 [4] = assay: Inhibition of growth of cultivated leukemic cells L1210 of mice; type: cell-based; conditions: for IC50: Mus musculus, growth, RPMI 1640, 20% calf serum, 37° C.
Description: as §1
For example, L1210 cells were inoculated in a concentration of 5×10^4 /ml in an RPMI 1640 culture medium containing 20% calf serum (Rosewell Memorial Park Institute 1640), and simultaneously 3'-deamino-3'-morpholino-carminomycin was added in various concentrations. Thus, the cells were cultivated in an incubator containing carbon dioxide gas at 37° C. The 50% growth inhibitory concentration with respect to a control group was determined.

Sarcina lutea PCI 1001 = assay: Minimum inhibitory concentration by broth dilution method; type: cell-based; conditions: Micrococcus luteus, PCI1001
Excerpt: (§3) To illustrate such activity, minimum inhibitory concentrations (as determined by the broth dilution method) of the compound against several bacteria are shown in the Table below.

Staph. aureus Smith = assay: as above; type: cell-based; conditions: Staphylococcus aureus
Excerpt: as §3

[5] = tested on: Pseudomonas aeruginosa A3; assay: as above; type: cell-based
Excerpt: as §3

[6] = tested on: Micrococcus flavus FDA 16; assay: as above; type: cell-based; conditions: FDA16
Excerpt: as §3

[7] = tested on: Corynebacterium bovis 1810; assay: as above; type: cell-based
Excerpt: as §3

[8] = tested on: Bacillus cereus ATCC 10702; assay: as above; type: cell-based; conditions: ATCC10702
Excerpt: as §3

[9] = tested on: Bacillus subtilis NRRL B-558; assay: as above; type: cell-based; conditions: NRRLB558
Excerpt: as §3

Staph. aureus FDA 209P = assay: as above; type: cell-based; conditions: Staphylococcus aureus, FDA209P
Excerpt: as §3

leukemic cells L1210 [10] = assay: Antitumor activity on CDF1 mouse leukemia induced by leukemic cells L1210; type: in vivo, CDF1 mice; conditions: 10 consecutive days
Description: (B) Antitumor activitiy on CDF1 mouse leukemia induced by leukemic cells L1210 of mice.
Leukemic cells L1210 of mice were intraperitoneally transplanted in an amount of 1×10^5 per mouse in CDF1 mice. Starting 24 hours after the transplantation, 3'-deamino-3'-morpholino-carminomycin was intraperitoneally or orally administered to the mice for 10 consecutive days. The survival rate (T/C, %) was calculated in comparison with a control group (to which physiological saline was administered).

P-388 leukemia = conditions: vs P-388 leukemia in mice; reported in U.S. Pat. No. 4,301,277; cited from earlier work

CC(=O)[C@]1(O)Cc2c(O)c3c(c(O)c2[C@@H](O[C@H]2C[C@H](N4CCOCC4)[C@H](O)[C@H](C)O2)C1)C(=O)c1c(O)cccc1C3=O [3'-Deamino-3'-morpholino-carminomycin]
IC50 (leukemic cells L1210 [1]): 0.09 µg/mL (≈ 0.154 µM)
IC50 (leukemic cells L1210 [2]): 0.013 µg/mL (≈ 0.0223 µM)
LD50 [3]: 1.56 mg/kg
IC50 (leukemic cells L1210 [4]; L1210, 24 h, 1 day, read-out: IC50 growth, 1 day after): 0.01 µg/mL (≈ 0.0171 µM)
IC50 (leukemic cells L1210 [4]; L1210, 48 h, 2 days, read-out: IC50 growth, 2 days after): 0.0009 µg/mL (≈ 0.00154 µM)
inhibition of growth and nucleic acid synthesis (in words) (leukemic cells L1210 [4]; cultivated L1210 cells of mice): markedly inhibit the growth and nucleic acid synthesis
MIC (Sarcina lutea PCI 1001): 0.78 µg/mL (≈ 1.34 µM)
MIC (Staph. aureus Smith): 6.25 µg/mL (≈ 10.7 µM)
MIC [5]: > 100 µg/mL
MIC [6]: 1.56 µg/mL (≈ 2.67 µM)
MIC [7]: 0.39 µg/mL (≈ 0.668 µM)
MIC [8]: 0.78 µg/mL (≈ 1.34 µM)
MIC [9]: 1.56 µg/mL (≈ 2.67 µM)
MIC (Staph. aureus FDA 209P): 0.78 µg/mL (≈ 1.34 µM)
T/C % of the survival period (leukemic cells L1210 [10]; i.p., 0.39 μg/mouse/day): 94%
T/C % of the survival period (leukemic cells L1210 [10]; i.p., 0.78 μg/mouse/day): 122%
T/C % of the survival period (leukemic cells L1210 [10]; i.p., 1.56 μg/mouse/day): 94%
T/C % of the survival period (leukemic cells L1210 [10]; i.p., 3.125 μg/mouse/day): 122%
T/C % of the survival period (leukemic cells L1210 [10]; i.p., 6.25 μg/mouse/day): 122%
T/C % of the survival period (leukemic cells L1210 [10]; i.p., 12.5 μg/mouse/day): 194%
toxicity (footnote *) (leukemic cells L1210 [10]; i.p., 12.5 μg/mouse/day): Toxic
T/C % of the survival period (leukemic cells L1210 [10]; p.o., 0.39 μg/mouse/day): 100%
T/C % of the survival period (leukemic cells L1210 [10]; p.o., 0.78 μg/mouse/day): 111%
T/C % of the survival period (leukemic cells L1210 [10]; p.o., 1.56 μg/mouse/day): 106%
T/C % of the survival period (leukemic cells L1210 [10]; p.o., 3.125 μg/mouse/day): 133%
T/C % of the survival period (leukemic cells L1210 [10]; p.o., 6.25 μg/mouse/day): 167%
T/C % of the survival period (leukemic cells L1210 [10]; p.o., 12.5 μg/mouse/day): 206%

COc1cccc2c1C(=O)c1c(O)c3c(c(O)c1C2=O)C[C@@](O)(C(=O)CO)C[C@@H]3O[C@H]1C[C@H](N2CCOCC2)[C@H](O)[C@H](C)O1 [3'-deamino-3'-morpholino-adriamycin, 3'-Deamino-3'-morpholino-adriamycin]
antitumor potency relative to adriamycin and daunomycin starting materials (P-388 leukemia): significantly greater antitumor potency

COc1cccc2c1C(=O)c1c(O)c3c(c(O)c1C2=O)C[C@@](O)(C(C)=O)C[C@@H]3O[C@H]1C[C@H](N2CCOCC2)[C@H](O)[C@H](C)O1 [3'-deamino-3'-morpholino-daunomycin, 3'-Deamino-3'-morpholinodaunomycin]
antitumor potency relative to adriamycin and daunomycin starting materials (P-388 leukemia): significantly greater antitumor potency
